Results reported in ChEMBL document CHEMBL1201862, “PubChem BioAssay data set” (2004).
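Protocol summary: plate cells (96-well), add compound at 5 concentrations, incubate 48 h, interpolate endpoints linearly. GI50 = concentration required for 50% inhibition of growth.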 Activity calls are given as the source filed them. Rule as the data show it: active = GI50 up to about 1.1 µM and inactive = higher.

How the values were obtained:
Assay in all cases: DTP human tumour cell line panel, 48 h
[1] = system: MOLT-4
[2] = system: COLO 205
[3] = system: SF-295
[4] = system: A549
[5] = system: HCT-15
[6] = system: RPMI-8226
[7] = system: Malme-3M
[8] = system: LOX IMVI
[9] = system: OVCAR-4
[10] = system: HL-60
[11] = system: CAKI-1
[12] = system: SW-620
[13] = system: RXF 393
[14] = system: SF-268
[15] = system: 786-0
[16] = system: NCI-H226
[17] = system: UACC-257
[18] = system: PC-3

Row | Structure (SMILES) | GI50 [1] | GI50 [2] | GI50 [3] | GI50 [4] | GI50 [5] [µM] | GI50 [6] | GI50 [7] | GI50 [8] | GI50 [9] | GI50 [10] | GI50 [11] | GI50 [12] | GI50 [13] | GI50 [14] | GI50 [15] | GI50 [16] | GI50 [17] | GI50 [18]
1 | C=CCCOC(=O)CO[N+](=O)[O-] | > 100 µM (inactive) | > 100 µM (inactive) | > 100 µM (inactive) | > 100 µM (inactive) | > 100 | > 100 µM (inactive) | > 100 µM (inactive) | > 100 µM (inactive) | > 100 µM (inactive) | 23.2 µM (inactive) | > 100 µM (inactive) | > 100 µM (inactive) | > 100 µM (inactive) | > 100 µM (inactive) | > 100 µM (inactive) | > 100 µM (inactive) | > 100 µM (inactive) | –
2 | COP(=O)(CP(=O)(OC)OCCC(C)CCC=C(C)C)OC (stereo unspecified) | > 100 µM (inactive) | > 100 µM (inactive) | > 100 µM (inactive) | > 100 µM (inactive) | > 100 | – | > 100 µM (inactive) | > 100 µM (inactive) | > 100 µM (inactive) | – | > 100 µM (inactive) | > 100 µM (inactive) | > 100 µM (inactive) | > 100 µM (inactive) | > 100 µM (inactive) | > 100 µM (inactive) | > 100 µM (inactive) | > 100 µM (inactive)
3 | Nc1cccc(S(=O)(=O)Nc2nnc(S(N)(=O)=O)s2)c1 | > 100 µM (inactive) | > 100 µM (inactive) | > 100 µM (inactive) | > 100 µM (inactive) | > 100 | > 100 µM (inactive) | > 100 µM (inactive) | > 100 µM (inactive) | > 100 µM (inactive) | > 100 µM (inactive) | > 100 µM (inactive) | > 100 µM (inactive) | > 100 µM (inactive) | > 100 µM (inactive) | > 100 µM (inactive) | > 100 µM (inactive) | – | > 100 µM (inactive)
4 | COc1ccc(-c2cc(O)c3cc4c(cc3n2)OCO4)cc1 | > 100 µM (inactive) | > 100 µM (inactive) | 63.4 µM (inactive) | > 100 µM (inactive) | > 100 | > 100 µM (inactive) | > 100 µM (inactive) | > 100 µM (inactive) | > 100 µM (inactive) | > 100 µM (inactive) | – | > 100 µM (inactive) | 38.4 µM (inactive) | > 100 µM (inactive) | 73.1 µM (inactive) | 29 µM (inactive) | > 100 µM (inactive) | –
5 | S=C(NN=C1NCCCCN1)Nc1ccccc1 | 25.5 µM (inactive) | 6.68 µM (inactive) | 31.5 µM (inactive) | 34.8 µM (inactive) | 37.4 | 9.93 µM (inactive) | > 100 µM (inactive) | 26.6 µM (inactive) | – | 14.6 µM (inactive) | > 100 µM (inactive) | – | – | 87.3 µM (inactive) | 39 µM (inactive) | > 100 µM (inactive) | 36 µM (inactive) | 45.7 µM (inactive)
6 | CCNC(=O)OCc1c(COC(=O)NCC)c(-c2ccc(Cl)c(Cl)c2)n2c1CCC2 | 5.06 µM (inactive) | 24.9 µM (inactive) | 11.7 µM (inactive) | 18.5 µM (inactive) | 13.6 | 7.18 µM (inactive) | 16.6 µM (inactive) | – | 15.2 µM (inactive) | 3.24 µM (inactive) | 3.01 µM (inactive) | 13.8 µM (inactive) | – | 6.55 µM (inactive) | 8.63 µM (inactive) | 1.75 µM (inactive) | 12.2 µM (inactive) | –
7 | Nc1nc(Cl)cc(NC23CC4CC(CC(C4)C2)C3)n1 | > 100 µM (inactive) | 81.8 µM (inactive) | 85.5 µM (inactive) | 98.6 µM (inactive) | 40.6 | > 100 µM (inactive) | 44.1 µM (inactive) | – | > 100 µM (inactive) | – | > 100 µM (inactive) | > 100 µM (inactive) | > 100 µM (inactive) | 47.1 µM (inactive) | > 100 µM (inactive) | 76.2 µM (inactive) | > 100 µM (inactive) | 29.2 µM (inactive)
8 | C[C@@H]1C[C@H]2[C@@H]3CCC4=CC(=O)C=C[C@]4(C)[C@@]3(F)[C@@H](O)C[C@]2(C)[C@@]1(O)C(=O)CO [DEXAMETHASONE] | 95.1 µM (inactive) | > 100 µM (inactive) | – | > 100 µM (inactive) | > 100 | – | > 100 µM (inactive) | > 100 µM (inactive) | > 100 µM (inactive) | > 100 µM (inactive) | > 100 µM (inactive) | > 100 µM (inactive) | – | – | > 100 µM (inactive) | > 100 µM (inactive) | > 100 µM (inactive) | –
9 | CCOC(=O)[C@H](Cc1ccccc1)NC(=O)c1nc[nH]c1[N+](=O)[O-] | > 100 µM (inactive) | > 100 µM (inactive) | > 100 µM (inactive) | > 100 µM (inactive) | > 100 | > 100 µM (inactive) | > 100 µM (inactive) | > 100 µM (inactive) | > 100 µM (inactive) | > 100 µM (inactive) | > 100 µM (inactive) | > 100 µM (inactive) | – | > 100 µM (inactive) | > 100 µM (inactive) | > 100 µM (inactive) | > 100 µM (inactive) | –
10 | C=C1C(=O)O[C@H]2C[C@@H](C)[C@@H]3CC(=O)OC[C@@]3(C)CC12 (stereo partly specified) | 27.5 µM (inactive) | 20.9 µM (inactive) | 21.6 µM (inactive) | 27.8 µM (inactive) | 29.4 | 21.4 µM (inactive) | 17.9 µM (inactive) | 24.9 µM (inactive) | 22.8 µM (inactive) | – | 18 µM (inactive) | 16.7 µM (inactive) | – | 27.4 µM (inactive) | 21.2 µM (inactive) | – | – | –
11 | C(=N\c1ccc(-c2nc3ccccc3o2)cc1)/c1ccco1 | 29 µM (inactive) | 37.7 µM (inactive) | – | – | 49.3 | 0.0453 µM (active) | 82.2 µM (inactive) | 58.9 µM (inactive) | 57.4 µM (inactive) | – | 40 µM (inactive) | > 100 µM (inactive) | 39.7 µM (inactive) | – | 75.2 µM (inactive) | – | 48.3 µM (inactive) | 55.7 µM (inactive)
12 | CC[n+]1cnc(N)c2c(-c3ccc(Cl)cc3)cn(-c3ccc(C)cc3)c21 | 4.52 µM (inactive) | 3.78 µM (inactive) | 12.7 µM (inactive) | 12.7 µM (inactive) | 14.9 | – | 12.3 µM (inactive) | 11.4 µM (inactive) | 2.77 µM (inactive) | 24.8 µM (inactive) | 16 µM (inactive) | 15.3 µM (inactive) | 3.05 µM (inactive) | 13.6 µM (inactive) | 11.4 µM (inactive) | 13.2 µM (inactive) | 2.82 µM (inactive) | 10.5 µM (inactive)
13 | O=C(CSc1nc2ccc(I)cc2c(=O)n1Cc1ccccc1)NN1C(=O)CSC1c1ccccc1 (stereo unspecified) | 29.2 µM (inactive) | 15.3 µM (inactive) | 27.1 µM (inactive) | 35.2 µM (inactive) | 14.1 | 31.2 µM (inactive) | – | 19.5 µM (inactive) | 25.8 µM (inactive) | 4.68 µM (inactive) | 3.13 µM (inactive) | 38 µM (inactive) | 25.8 µM (inactive) | 28.8 µM (inactive) | 38.3 µM (inactive) | 26.9 µM (inactive) | 20.4 µM (inactive) | 32.2 µM (inactive)
